Source: patent publication US11541049B2, “Tetrahydroisoquinoline derivatives, preparation process and use thereof” (SICHUAN KELUN-BIOTECH BIOPHARMACEUTICAL CO., LTD., priority 2018, dated 2023)
Converted amounts (≈) assume the structure as drawn.

How the values were obtained:
[1] = molecular target: human coagulation factor XIa (Homo sapiens (Human), UniProt P03951); test: Inhibition of coagulation factor XIa (fluorogenic substrate, enzyme kinetic mode); assay type: biochemical
Experimental: The following procedures can be used to determine the in vitro inhibition of human coagulation factor XIa by the compound of the present disclosure, as indicated by IC50.
Enzyme: human coagulation factor XIa; manufacturer: Haemtech;
Substrate: Boc-Ile-Glu-Gly-Arg-AMC Acetate salt; manufacturer: Bachem;
Reaction buffer: 50 mM HEPES, 145 mM NaCl, 5 mM KCl, 0.1% BSA, pH 7.4;
The test compounds were dissolved in reaction buffer at different concentrations. 4 μl of coagulation factor XIa and 4 μl of the test compound were added to a 384 well plate, incubated at room temperature for 10 minutes after mixed thoroughly, and then 4 μl of substrate was added to initiate the reaction. For reading fluorescence signal value, enzyme kinetic mode was used. The wavelength of excitation light was selected to be 380 nm, and the wavelength of emission light was selected to be 460 nm. Read once per 30 seconds, and continuously read 20 cycles. Linear regression analysis of signal value-time was performed during the linear reaction period, and the slope was the reaction rate, and the enzyme activity inhibition rate was calculated according to the following formula. The half inhibitory concentration IC50 values of the compound were fitted using GraphPad Prism 5 software, and results are shown in Table 1. Inhibition rate %=(V0−Vi)/(V0−Vblank)×100.
In the formula: V0 is the reaction rate of the control well (using the same volume of reaction buffer without adding test compound), Vi is the reaction rate of test compound, Vblank is a blank well (using the same volume of reaction buffer without adding either enzyme or test compound).

[2] = molecular target: human coagulation factor VIIa (Homo sapiens (Human), UniProt P08709); test: Determination of inhibition of factor VIIa; assay type: biochemical
Experimental: Enzyme: human coagulation factor VIIa; manufacturer: Haematologic Technologies;
Substrate: Boc-VPR-AMC; R&D System;
Tissue factor: tissue factor F3; manufacturer: Sino Biological;
The test compounds were dissolved in assay buffer (50 mM Hepes, 150 mM NaCl, 5 mM CaCl2, pH 7.4) at a final concentration of 10 μM and 1 μM. Coagulation factor VIIa and tissue factor were mixed at an equimolar concentration. After incubation at 37° C. for 15 minutes, the test compound was further added. Incubation was conducted at room temperature for 10 minutes. Then the substrate (Boc-VPR-AMC) was added to initiate the reaction. For reading fluorescence signal value, enzyme kinetic mode was used. The wavelength of excitation light was 380 nm, and the wavelength of emission light was 460 nm. The IC50 was calculated in a similar manner to experimental Example 1.

rabbit plasma = test: Effect on coagulation in vitro (aPTT and PT), rabbit plasma; details: final concentration 10NM (so in the source), n = 3
Excerpt: aPTT reagent (purchased from Sysmex);
PT reagent (purchased from Sysmex);
The coagulation pathway includes the extrinsic coagulation pathway and the intrinsic coagulation pathway. The parameter associated with the extrinsic coagulation pathway is prothrombin time, expressed as PT; the parameter associated with the intrinsic coagulation pathway is activated partial thromboplatin time, expressed as aPTT.
After anticoagulation, blood of different species (rabbit, human) was subjected to centrifugation. The upper layer of plasma was collected and divided into several aliquots. The test compounds were added to make the final concentration of test compound to be 10NM. Incubation was conducted at 37° C. after mixed thoroughly. Then the samples were put into a coagulation analyzer (Sysmex CA1500, Sysmex, Japan) for the aPTT and PT assays. Blank plasma (without test compound) was used as a reference, and the ratio values of aPTT and PT of all samples and blank plasmas were analyzed, the results are shown in table 3.

[3] = Solubility test in pH 7.4 buffer; assay type: physicochemical; details: buffer (pH 7.4), aqueous buffer, thermodynamic from solid, 25° C.
Experimental: The test compound was dissolved in a buffer (pH 7.4) at room temperature until the solution reached supersaturation. The solution was shaken at 25° C. by a constant temperature mixer for 4 hours, filtered through a 0.45 μm aqueous membrane filter, and the concentration was measured by UPLC. 1 mg of the test compound was accurately weighed, and dissolved in 10 mL volumetric flask as the reference substance. The reference substance was measured using the same process. The solubility of the test compound was calculated according to external standard process, and the results are shown in table 4.

[4] = Pharmacokinetics study in male SD rats, intravenous injection; assay type: in vivo
Experimental: (§1) Pharmacokinetics characteristics were examined by administering compound of the present disclosure and the reference compound (BMS-962212) to male SD rats through intravenous injection (IV). Blood was collected at various time points after administration. The blood was anticoagulated with EDTA-K2. Plasma samples were obtained by centrifugation within 30 min after blood collection, and retained at −80° C. The plasma samples were processed to precipitate the proteins and then analyzed by LC-MS/MS.
(§2) The pharmacokinetic parameters were calculated using WinNonlin 6.3 software by employing a non-compartmental model.

[5] = Pharmacokinetics study in male rabbits, intravenous injection; assay type: in vivo
Experimental: as §1, with “properties” for “characteristics”, “rabbits” for “SD rats”, “centrifugation,” for “centrifugation within 30 min after blood collection,”
as §2

[6] = Blood exposure after intravenous administration in various animal species (summary); assay type: in vivo; details: rat, rabbit, dog
Experimental: as §1
as §1, with “properties” for “characteristics”, “rabbits” for “SD rats”, “centrifugation,” for “centrifugation within 30 min after blood collection,”
as §1, with “properties” for “characteristics”, “Beagle dog” for “male SD rats”, “Plasma samples were obtained by centrifugation within 30 min after blood collection, and retained at −80° C.” left out

in vivo = details: SD, rat, iv
Experimental: (§3) The clinical observation was carried out for 7 days after a single dose, and the body weight of the animals were measured. On the 8th day, blood samples were taken after anesthesia for detection of hematology, blood biochemistry, coagulation and other indicators. Observation was also conducted by gross anatomy.

SD rats = test: Single dose toxicity study in SD rats, intravenous infusion; details: 50, 75, 100, 150, 200 mg/kg, intravenous infusion (2 ml/min)
Experimental: as §3

[7] = male, SD, rat, plasma, rats, 1 mg/kg

Chain of human coagulation factor VIIa (P08709 whole entry, looked up): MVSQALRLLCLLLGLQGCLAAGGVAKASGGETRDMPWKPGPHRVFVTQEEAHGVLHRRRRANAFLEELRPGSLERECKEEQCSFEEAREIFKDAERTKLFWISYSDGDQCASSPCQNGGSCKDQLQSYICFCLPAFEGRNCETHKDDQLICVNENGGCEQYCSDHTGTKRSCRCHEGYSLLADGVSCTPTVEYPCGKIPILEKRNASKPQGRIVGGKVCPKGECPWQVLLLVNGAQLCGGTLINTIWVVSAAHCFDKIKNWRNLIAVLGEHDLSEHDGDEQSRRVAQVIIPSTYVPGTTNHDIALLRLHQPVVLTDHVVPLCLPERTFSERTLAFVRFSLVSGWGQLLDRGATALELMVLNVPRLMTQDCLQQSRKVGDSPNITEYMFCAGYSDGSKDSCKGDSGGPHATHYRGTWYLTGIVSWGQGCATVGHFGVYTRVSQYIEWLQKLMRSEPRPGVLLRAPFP
Chain of human coagulation factor VIIa (P08709 whole entry, looked up): as above
Chain of human coagulation factor VIIa (P13726 whole entry partner, looked up): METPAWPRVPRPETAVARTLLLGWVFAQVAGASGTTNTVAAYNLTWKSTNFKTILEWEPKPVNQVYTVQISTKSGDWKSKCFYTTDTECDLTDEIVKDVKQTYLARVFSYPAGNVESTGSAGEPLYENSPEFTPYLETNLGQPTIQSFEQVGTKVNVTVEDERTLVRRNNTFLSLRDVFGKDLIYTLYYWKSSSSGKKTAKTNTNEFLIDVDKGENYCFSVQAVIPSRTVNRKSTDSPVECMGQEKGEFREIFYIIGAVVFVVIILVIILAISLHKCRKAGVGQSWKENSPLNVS
Chain of human coagulation factor XIa (P03951 388-625): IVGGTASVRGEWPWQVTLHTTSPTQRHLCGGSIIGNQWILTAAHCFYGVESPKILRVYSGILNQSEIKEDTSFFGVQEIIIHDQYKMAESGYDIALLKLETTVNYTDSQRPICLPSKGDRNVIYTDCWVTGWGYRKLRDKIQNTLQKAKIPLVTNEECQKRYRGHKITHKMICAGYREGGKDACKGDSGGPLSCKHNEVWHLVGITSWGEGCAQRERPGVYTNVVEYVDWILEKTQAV
Chain of human coagulation factor XIa (P03951 19-387): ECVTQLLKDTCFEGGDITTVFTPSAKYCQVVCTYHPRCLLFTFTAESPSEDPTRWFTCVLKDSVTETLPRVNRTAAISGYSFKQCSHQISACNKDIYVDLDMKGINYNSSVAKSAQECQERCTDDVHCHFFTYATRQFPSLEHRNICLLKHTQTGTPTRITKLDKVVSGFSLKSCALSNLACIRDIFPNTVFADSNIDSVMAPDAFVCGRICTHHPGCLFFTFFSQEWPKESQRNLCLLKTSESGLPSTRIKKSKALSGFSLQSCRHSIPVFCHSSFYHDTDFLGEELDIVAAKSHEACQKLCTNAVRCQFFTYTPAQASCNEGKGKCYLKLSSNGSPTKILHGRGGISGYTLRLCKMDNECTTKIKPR

Question: With `N[C@@H](CCCCNC(=O)CN1CC=C(c2cccc3c2CCN(C(=O)[C@H]2CC(c4cccc(Cl)c4F)=NO2)[C@@H]3C(=O)Nc2ccc(C(=O)O)cc2)CC1)C(=O)O` [Example 5, 4-((S)-5-(1-(2-(((S)-5-amino-5-carboxypentyl)amino)-2-oxoethyl)-1,2,3,6-tetrahydropyridin-4-yl)-2-((R)-3-(3-chloro-2-fluorophenyl)-4,5-dihydroisoxazole-5-carbonyl)-1,2,3,4-tetrahydroisoquinoline-1-carboxamido)benzoic acid] as the molecule, how does the IC50 [1] read?
Answer: Its IC50 is 0.16 ± 0.02 nM.

Question: What about the “inhibitory effect on coagulation factor VIIa (in words)” value [2] of the same molecule?
Answer: Its value is “no significant inhibitory effect”.

Question: What about the IC50 ([2]; tested at final concentration of 10 μM and 1 μM, with tissue factor) of the same molecule?
Answer: The IC50 was > 10000 nM.

Question: And the “Ratio of PT to that of blank plasma” value (rabbit plasma)?
Answer: The value was 1.00.

Question: What about the “Ratio of aPTT to that of blank plasma” value (rabbit plasma) of the same molecule?
Answer: The value was 1.84.

Question: And the solubility at 4 h [3]?
Answer: The solubility at 4 h was 10.8 mg/mL (≈ 13.7 mM).

Question: And the AUC(0-inf) [4, 7]?
Answer: Its AUC(0-inf) is 2890 ± 473 ng·h/mL.

Question: What about the AUC(0-t) [4, 7] of the same molecule?
Answer: Its AUC(0-t) is 2890 ± 473 ng·h/mL.

Question: And the Cmax [4, 7]?
Answer: Its Cmax is 2990 ± 629 ng/mL.

Question: What about the clearance [4, 7] of the same molecule?
Answer: Its clearance is 5.88 ± 1.07 mL/min/kg.

Question: And the half-life [4, 7]?
Answer: Its half-life is 46.8 ± 3.6 min.

Question: What about the “AUClast relative to that of the reference compound” value ([4]; rat plasma, 1 mg/kg vs 5 mg/kg reference, dosage normalized) of the same molecule?
Answer: The value was 3.53 times.

Question: And the “T1/2 relative to that of the reference compound” value ([4]; rat, 1 mg/kg vs 5 mg/kg reference)?
Answer: The value was 4.11 times.

Question: What about the “Cmax relative to that of the reference compound” value ([4]; rat, 1 mg/kg vs 5 mg/kg reference, dosage normalized) of the same molecule?
Answer: The value was 1.35 times.

Question: And the “AUClast relative to that of the reference compound” value ([5]; 1 mg/kg each)?
Answer: Its value is 12.04 times.

Question: What about the “Cmax relative to that of the reference compound” value ([5]; 1 mg/kg each) of the same molecule?
Answer: The value was 4.74 times.

Question: What about the “T1/2 relative to that of the reference compound” value ([5]; 1 mg/kg each) of the same molecule?
Answer: Its value is 2.65 times.

Question: And the AUC(0-inf) ([5]; male, rabbit, plasma, 1 mg/kg)?
Answer: Its AUC(0-inf) is 5740 ± 2270 ng·h/mL.

Question: And the AUC(0-t) ([5]; male, rabbit, plasma, 1 mg/kg)?
Answer: The AUC(0-t) was 5730 ± 2270 ng·h/mL.

Question: What about the Cmax ([5]; male, rabbit, plasma, 1 mg/kg) of the same molecule?
Answer: Its Cmax is 6950 ± 1900 ng/mL.

Question: What about the Vd ([5]; male, rabbit, plasma, 1 mg/kg) of the same molecule?
Answer: The Vd was 0.3 ± 0.09 L/kg.

Question: And the clearance ([5]; male, rabbit, plasma, 1 mg/kg)?
Answer: The clearance was 3.18 ± 1.06 mL/min/kg.

Question: And the half-life ([5]; male, rabbit, plasma, 1 mg/kg)?
Answer: Its half-life is 68.4 ± 15.6 min.

Question: What about the “apparent volume of distribution as share of that of the reference compound” value ([5]; same dosage 1 mg/kg) of the same molecule?
Answer: The value was 23%.

Question: And the “exposure in blood relative to that of BMS-962212” value [6]?
Answer: The value was 3-25 times.

Question: And the MTD at 7 days (in vivo)?
Answer: Its MTD at 7 days is ≥ 200 mg/kg.

Question: And the “Single dose toxicity study in SD rats: observation” value (SD rats)?
Answer: Its value is “No abnormality was found”.
